From patent US11932624B2, “MDM2 degraders and uses thereof” (Kymera Therapeutics, Inc., priority 2020, dated 2024) come the findings set out here.

The subject of this assay is RS411 cells. Description: Cell Viability CTG Assay (CellTiter Glo) in RS411 cells. The format is cell-based. To be noted: Homo sapiens, RS4-11, 24 h, duration 1 day. The procedure, abridged:
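Read-out was CellTiter Glo luminescence, taken after 10 min at RT, following 1-4 days of incubation at 37 °C, 5% CO2. Cells were plated at 1000 per well with an 11-point, 3-fold series starting at 10 μM final in 0.2% DMSO. IC50 values are given as letter-code ranges.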
For orientation: Cellular ATP, detected with luciferase, serves as a proxy for viable cell number.
The IC50 is the concentration that inhibits the measured activity by half. Low values mean greater potency in that assay, high ones weaker potency in that assay. Take `Cn1c(=O)n(C2CCC(=O)NC2=O)c2ccc(C#CC3CCN(C[C@H]4CC[C@H](NC(=O)[C@@H]5NC6(CCOCC6)[C@@]6(C(=O)Nc7cc(Cl)ccc76)[C@H]5c5cccc(Cl)c5F)CC4)CC3)cc21` (some centres unmarked) [I-153]: the concentration for half-maximal inhibition (IC50) is under 50 nM.

As to `Cn1c(=O)n(C2CCC(=O)NC2=O)c2ccc(CCN3CC4(CCN(C[C@H]5CC[C@H](NC(=O)[C@@H]6NC7(CCCCC7)[C@@]7(C(=O)Nc8cc(Cl)ccc87)[C@H]6c6cccc(Cl)c6F)CC5)CC4)C3)cc21` (some centres unmarked) [I-154], the concentration for half-maximal inhibition (IC50) is under 50 nM.

For the compound `CC1(C)CCC2(CC1)N[C@@H](C(=O)N[C@H]1CC[C@H](CN3CCC(C#Cc4cccn5c(N6CCC(=O)NC6=O)cnc45)CC3)CC1)[C@H](c1ccnc(Cl)c1F)[C@]21C(=O)Nc2cc(Cl)ccc21` [I-155], the IC50 was under 50 nM.

As to `CN1[C@@H](CN[C@H]2CC[C@H](C(=O)N3CCC(CCc4ccc5c(c4)n(C)c(=O)n5C4CCC(=O)NC4=O)CC3)CC2)[C@H](c2cccc(Cl)c2F)[C@]2(C(=O)Nc3cc(Cl)ccc32)C12CCCCC2` (some centres unmarked) [I-156], the IC50 is over 1000 nM.

`Cn1c(=O)n(C2CCC(=O)NC2=O)c2ccc(CCCCCNC(=O)[C@@H]3CCC(NC(=O)[C@@H]4NC5(CCC(C)(C)CC5)[C@@]5(C(=O)Nc6cc(Cl)ccc65)[C@H]4c4ccnc(Cl)c4F)CO3)cc21` (some centres unmarked) [I-157] returned an IC50 of under 50 nM.

In turn, `CN1[C@@H](C(=O)N[C@H]2CC[C@H](CN3CCC4(CC3)CN(CCc3ccc5c(c3)n(C)c(=O)n5C3CCC(=O)NC3=O)C4)CC2)[C@H](c2cccc(Cl)c2F)[C@]2(C(=O)Nc3cc(Cl)ccc32)C12CCCCC2` (some centres unmarked) [I-158] registered a 50% inhibitory concentration (IC50) of under 50 nM.

As for `Cn1c(=O)n(C2CCC(=O)NC2=O)c2cccc(CCN3CC4(CCN(C[C@H]5CC[C@H](NC(=O)[C@@H]6NC7(CCCCC7)[C@@]7(C(=O)Nc8cc(Cl)ccc87)[C@H]6c6cccc(Cl)c6F)CC5)CC4)C3)c21` (some centres unmarked) [I-159], the half-inhibitory concentration (IC50) is under 50 nM.

Regarding `CN(CCCCCc1ccc2c(c1)n(C)c(=O)n2C1CCC(=O)NC1=O)Cc1ccc(NC(=O)[C@@H]2NC3(CCCCC3)[C@@]3(C(=O)Nc4cc(Cl)ccc43)[C@H]2c2cccc(Cl)c2F)c(F)c1` (some centres unmarked) [I-161], the IC50 was under 50 nM.

In turn, `Cn1c(=O)n(C2CCC(=O)NC2=O)c2ccc(CCCCCNC(=O)c3ccc(NC(=O)[C@@H]4NC5(CCCCC5)[C@@]5(C(=O)Nc6cc(Cl)ccc65)[C@H]4c4cccc(Cl)c4F)c4c3OCCO4)cc21` (some centres unmarked) [I-163] gave an IC50 of under 50 nM.

Compound `CC1(C)CCC2(CC1)N[C@@H](C(=O)N[C@H]1CC[C@H](CN3CCC(C#Cc4ccn5c(N6CCC(=O)NC6=O)cnc5c4)CC3)CC1)[C@H](c1ccnc(Cl)c1F)[C@]21C(=O)Nc2cc(Cl)ccc21` [I-164] had a half-inhibitory concentration (IC50) of under 50 nM.

`Cn1c(=O)n(C2CCC(=O)NC2=O)c2ccc(CCC3CCN(C(=O)c4coc([C@@H]5NC6(CCCCC6)[C@@]6(C(=O)Nc7cc(Cl)ccc76)[C@H]5c5cccc(Cl)c5F)n4)CC3)cc21` (some centres unmarked) [I-165] yielded an IC50 of over 1000 nM.

Regarding `CC(C)[C@@H](CS(=O)(=O)C(C)C)N1C(=O)[C@@](C)(CC(=O)N[C@H]2CC[C@H](CN3CCC(C#Cc4ccn5c(N6CCC(=O)NC6=O)cnc5c4)CC3)CC2)C[C@H](c2cccc(Cl)c2)[C@H]1c1ccc(Cl)cc1` [I-166], the 50% inhibitory concentration (IC50) was 500 to 1000 nM.

The compound `CC(C)(C)C[C@@H]1N[C@@H](C(=O)N[C@H]2CC[C@H](CN3CCC(C#Cc4cccn5c(N6CCC(=O)NC6=O)cnc45)CC3)CC2)[C@H](c2cccc(Cl)c2F)[C@@]1(C#N)c1ccc(Cl)cc1F` [I-167] came in with an IC50 of over 1000 nM.

With `COc1cc2c(cc1OC(C)C)C(c1ccc(Cl)cc1)N(c1ccc(N(C)C[C@H]3CC[C@H](N(C)C(=O)CCCCc4ccc5c(c4)n(C)c(=O)n5C4CCC(=O)NC4=O)CC3)cc1)C(=O)C2` (some centres unmarked) [I-168], the IC50 is under 50 nM.

The compound `Cn1c(=O)n(C2CCC(=O)NC2=O)c2ccc(C#CCCN3CCC(NC(=O)[C@@H]4NC5(CCCCC5)[C@@]5(C(=O)Nc6cc(Cl)ccc65)[C@H]4c4cccc(Cl)c4F)CC3)cc21` (some centres unmarked) [I-169] showed a 50% inhibitory concentration (IC50) of over 1000 nM.

Compound `CC(C)[C@@H](CS(=O)(=O)C(C)C)N1C(=O)[C@@](C)(CC(=O)N[C@H]2CC[C@H](CN3CCC(C#Cc4cccn5c(N6CCC(=O)NC6=O)cnc45)CC3)CC2)C[C@H](c2cccc(Cl)c2)[C@H]1c1ccc(Cl)cc1` [I-170] showed an IC50 of 100 to 500 nM.

Take `Cn1c(=O)n(C2CCC(=O)NC2=O)c2ccc(CC[C@H]3CC[C@H](N4CCC(NC(=O)[C@@H]5NC6(CCCCC6)[C@@]6(C(=O)Nc7cc(Cl)ccc76)[C@H]5c5cccc(Cl)c5F)CC4)CC3)cc21` (some centres unmarked) [I-171]: the IC50 was under 50 nM.

In turn, `Cn1c(=O)n(C2CCC(=O)NC2=O)c2ccc(CCCCCOC3CCN(C(=O)c4coc([C@@H]5NC6(CCCCC6)[C@@]6(C(=O)Nc7cc(Cl)ccc76)[C@H]5c5cccc(Cl)c5F)n4)CC3)cc21` (some centres unmarked) [I-172] returned an IC50 of over 1000 nM.

As for `Cn1c(=O)n(C2CCC(=O)NC2=O)c2ccc(C3CCN(C(=O)[C@H]4CC[C@H](NC(=O)[C@@H]5NC6(CCCCC6)[C@@]6(C(=O)Nc7cc(Cl)ccc76)[C@H]5c5cccc(Cl)c5F)CC4)CC3)cc21` (some centres unmarked) [I-174], the half-maximal inhibitory concentration (IC50) was under 50 nM.

Compound `COc1cc2c(cc1OC(C)C)C(c1ccc(Cl)cc1)N(c1ccc(N(C)C[C@H]3CC[C@H](N(C)CCOCCOCC(=O)N[C@H](C(=O)N4C[C@H](O)C[C@H]4C(=O)NCc4ccc(-c5scnc5C)cc4)C(C)(C)C)CC3)cc1)C(=O)C2` (some centres unmarked) [I-175] came in with a half-inhibitory concentration (IC50) of over 1000 nM.

As for `Cn1c(=O)n(C2CCC(=O)NC2=O)c2ccc(C3CCN(C(=O)c4ccc(NC(=O)[C@@H]5NC6(CCCCC6)[C@@]6(C(=O)Nc7cc(Cl)ccc76)[C@H]5c5cccc(Cl)c5F)cc4)CC3)cc21` (some centres unmarked) [I-176], the IC50 was under 50 nM.

In turn, `Cn1c(=O)n(C2CCC(=O)NC2=O)c2ccc(C3CCN(C(=O)[C@H]4CC[C@H](NC(=O)[C@@H]5NC6(CCC(C)(C)CC6)[C@@]6(C(=O)Nc7cc(Cl)ccc76)[C@H]5c5ccnc(Cl)c5F)CC4)CC3)cc21` (some centres unmarked) [I-177] showed a 50% inhibitory concentration (IC50) of under 50 nM.

Turning to `Cn1c(=O)n(C2CCC(=O)NC2=O)c2ccc(N3CCN(C(=O)[C@H]4CC[C@H](NC(=O)[C@@H]5NC6(CCCCC6)[C@@]6(C(=O)Nc7cc(Cl)ccc76)[C@H]5c5cccc(Cl)c5F)CC4)CC3)cc21` (some centres unmarked) [I-178], the half-maximal inhibitory concentration (IC50) is under 50 nM.

As for `COc1cc2c(cc1OC(C)C)[C@H](c1ccc(Cl)cc1)N(c1ccc(N(C)CC3CCN(C(=O)CCCCCc4ccc5c(c4)n(C)c(=O)n5C4CCC(=O)NC4=O)CC3)cc1)C(=O)C2` (some centres unmarked) [I-179], the concentration for half-maximal inhibition (IC50) was under 50 nM.

`Cn1c(=O)n(C2CCC(=O)NC2=O)c2ccc(CCN3CCN(C(=O)[C@H]4CC[C@H](NC(=O)[C@@H]5NC6(CCCCC6)[C@@]6(C(=O)Nc7cc(Cl)ccc76)[C@H]5c5cccc(Cl)c5F)CC4)CC3)cc21` (some centres unmarked) [I-180] came in with an IC50 of under 50 nM.

In turn, `COc1cc2c(cc1OC(C)C)[C@H](c1ccc(Cl)cc1)N(c1ccc(N(C)CC3CCN(C(=O)Cc4ccc5c(c4)n(C)c(=O)n5C4CCC(=O)NC4=O)CC3)cc1)C(=O)C2` (some centres unmarked) [I-181] showed a half-maximal inhibitory concentration (IC50) of over 1000 nM.

As to `COc1cc2c(cc1OC(C)C)[C@H](c1ccc(Cl)cc1)N(c1ccc(N(C)CC3CCN(C(=O)CCCc4ccc5c(c4)n(C)c(=O)n5C4CCC(=O)NC4=O)CC3)cc1)C(=O)C2` (some centres unmarked) [I-182], the IC50 was under 50 nM.

In turn, `Cn1c(=O)n(C2CCC(=O)NC2=O)c2ccc(CN3CCN(C(=O)[C@H]4CC[C@H](NC(=O)C5NC6(CCCCC6)[C@@]6(C(=O)Nc7cc(Cl)ccc76)[C@H]5c5cccc(Cl)c5F)CC4)CC3)cc21` (some centres unmarked) [I-183] displayed a 50% inhibitory concentration (IC50) of under 50 nM.

The compound `O=C1CCN(c2cnc3cc(NCCCCCNC[C@H]4CC[C@H](NC(=O)[C@@H]5NC6(CCCCC6)[C@@]6(C(=O)Nc7cc(Cl)ccc76)[C@H]5c5cccc(Cl)c5F)CC4)ccn23)C(=O)N1` [I-184] gave an IC50 of 50 to 100 nM.
